# Experimental data from patent US20180312493A1, “Antibiotic Compounds, Pharmaceutical Formulations Thereof And Methods And Uses Therefor” (Simon Fraser University, priority 2015, published 2018).
# Assays:
# S. aureus (ATCC29213) = assay: In vitro susceptibility, broth microdilution (MIC); type: cell-based; details: Staphylococcus aureus; S. aureus ATCC29213; 18-24 h, 37 C; read-out: Antimicrobial activity (MIC) S. aureus ATCC29213
# From the text: Epidemic methicillin resistant S. aureus (MRSA) strain sequenced at the Sanger Centre (MRSA252, NRS71) was obtained from NARSA (Network on Antimicrobial Resistance in S. aureus). Methicillin sensitive S. aureus (ATCC 29213 and 25923), methicillin resistant S. aureus (ATCC BAA-1762), and Salmonella typhimurium (ATCC BAA-185) were obtained from ATCC, The Global Bioresource Center. Acinetobacter baumannii (ATCC 19606 and ATCC 17978), Klebsiella pneumonia (C238), vancomycin resistant Enterococci #2 (2010A) (VRE#2), MRSA (USA400, MW2) and Pseudomonas aeruginosa (PA0-1) were obtained from the laboratory of Dr B. B. Finlay at the University of British Columbia (Vancouver, Canada).
# The antimicrobial activities of PK inhibitor candidates were determined using the 96-well microtiter standard 2-fold serial broth microdilution method as described by CLSI (formerly NCCLS) with the various gram-positive and gram-negative bacteria species mentioned above. Bacteria from a single colony were grown, overnight in either BHI Broth (VRE), mueller hinton broth (S. aureus 29213; MRSA USA400, A. baumannii 19606, MRSA BAA-1762) or L-broth (P. aeruginosa, S. typhimurium, K. pneumonia and A. baumannii 17978). […] Culture plates were incubated for 18-24 h at 37° C., and optical density at 600 nm (OD600) was measured using a Benchmark Plus™ microplate spectrophotometer (Bio-Rad™). The absorbance control values for the series containing CAMHB and inhibitor were subtracted as background from the corresponding infected wells. Minimal inhibitory concentration (MIC) was defined as the lowest concentration of test compound leading to complete inhibition of cell growth in relation to compound-free control wells as determined by optical density. Vancomycin, methicillin and ciprofloxicin were used as reference compounds. All assays were run in triplicate or duplicate. Experiments were replicated at least twice to verify reproducibility using the above conditions.
# MRSA Pyk = molecular target: T1, MRSA Pyk (Staphylococcus aureus, UniProt Q6GG09); assay: MRSA pyruvate kinase (PK) activity, continuous LDH-coupled assay; type: biochemical, methicillin resistant S. aureus (MRSA252)
# T1 construct: made in house; host or cells: E. coli BL-21 (DE3)
# T1 sequence (Q6GG09 whole entry): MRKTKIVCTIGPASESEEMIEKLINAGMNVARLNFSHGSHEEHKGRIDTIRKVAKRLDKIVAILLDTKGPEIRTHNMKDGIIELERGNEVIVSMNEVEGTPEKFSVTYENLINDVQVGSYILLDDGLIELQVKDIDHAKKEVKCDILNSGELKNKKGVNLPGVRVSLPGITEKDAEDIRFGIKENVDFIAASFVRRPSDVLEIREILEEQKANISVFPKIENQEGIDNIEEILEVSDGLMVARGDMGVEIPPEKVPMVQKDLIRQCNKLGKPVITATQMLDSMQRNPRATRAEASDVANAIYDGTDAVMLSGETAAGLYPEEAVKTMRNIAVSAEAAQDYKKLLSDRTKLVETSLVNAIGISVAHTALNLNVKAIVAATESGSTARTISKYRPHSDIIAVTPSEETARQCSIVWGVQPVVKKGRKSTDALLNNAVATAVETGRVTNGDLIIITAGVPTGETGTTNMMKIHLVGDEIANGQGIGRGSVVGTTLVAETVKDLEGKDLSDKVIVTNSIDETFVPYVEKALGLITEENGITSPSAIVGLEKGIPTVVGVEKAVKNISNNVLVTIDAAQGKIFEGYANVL
# From the text: Genomic DNA of MRSA strain Sanger 252 extracted using DNeasy Tissue Kit™ (Qiagen™) was used as a template to generate the His-tagged MRSA PK. Human cDNA from MCF-7 breast cancer cell line (courtesy of Dr. J Wong, BC Cancer Research Center (Vancouver, Canada)) was used as a template to generate the full-length human M2 PK enzyme. The following primer sets were used creating appropriate restriction sites (NdeI and XhoI sites underlined): For cloning of MRSA PK: M27F 5′-[…]-3′ and M27R 5′-[…]-3′, for cloning of human M2 PK isoform: hM2F 5′-[…]-3′ and hM2R 5′-[…]-3′. The resulting PCR fragments for each construct were cloned into the NdeI and XhoI unique sites of the bacterial expression vector pET-28a (+) (Novagen™). […] The sequence and the correct reading frame of all constructs were verified by sequencing. Human M1, R and L PK constructs in pET-28-a(+) vectors (courtesy of Dr. L. Cantley, Harvard Medical, School (Boston, USA)) were used to generate relevant recombinant His-tagged human PK isoforms.
# MRSA and human constructs in pET-28a(+) were used to express relevant recombinant PK proteins in E. coli BL-21 (DE3). The proteins were expressed and purified using Ni-NTA agarose (Qiagen™) according to the manufacturer's protocol. Briefly, cells were grown to an absorbance of 0.4-0.5 at 600 nm in 2×YT medium, then induced with 0.1 mM IPTG for 3 h at 20° C. Cells were lysed by sonication on ice (3×10-s bursts with a 30-s recovery between bursts) in lysis buffer (0.2 mg/ml lysozyme, 50 mM Tris pH 7.5, 10 mM MgCl2, 200 mM NaCl, 100 mM KCl, 10% glycerol, 10 mM imidazole, 0.5% NP-40 and 1 mM DTT containing Complete™ protease inhibitor). Cell lysates were cleared by centrifugation (18,000×g in a Beckman™ JA-20 rotor) for 20 min at 4° C. and PK isoforms were purified by batch binding to Ni-NTA resin. The resins were then packed in columns (1×2 cm) and washed with 400 column volumes lysis buffer containing 30 mM imidazole. His-tagged PK isoforms were eluted with the same buffer containing 300 mM imidazole. The proteins were dialyzed overnight at 4° C. against 2000 volumes of ice-cold 30 mM Tris pH 7.5, 25 mM KCl, 5 mM MgCl2, 10% glycerol and 1 mM DTT to remove imidazole. All purification steps were done at 4° C.; enzymes were flash-frozen and stored at −70° C. Enzymatic activity of frozen protein preparations was stable for at least 10 months and up to 5 freeze/thaw cycles. Purity and physical integrity of proteins were assessed using SDS-polyacrylamide gel electrophoresis (SDS-PAGE) followed by coomassie blue staining. Protein concentration was estimated by Bradford assay (Bio-Rad Protein Assay™) using bovine serum albumin as a standard.
# Candidate MRSA PK inhibitors were assayed for their ability to inhibit enzymatic activities of MRSA and human PKs. PK activity was determined using a continuous assay coupled to lactate dehydrogenase (LDH) in which the change in absorbance at 340 nm owing to oxidation of NADH was measured using a Benchmark Plus™ microplate spectrophotometer (Bio-Rad Laboratories, Hercules, Calif.). […] Reactions were initiated by the addition of 15 nM of one of the PK enzymes. PK activity proportional to the rate of change at 340 nm was expressed as specific activity (μmol/min/mg), which is defined as the amount of PK that catalyzes the formation of one micromole of either product per minute. Inhibitors were dissolved in DMSO with the final concentration of the solvent never exceeding 1% of the assay volume. IC50 values were calculated by curve fitting on a four-parameter dose-response model with variable slope using Graphpad Prism 5.0™ (GraphPad™ Software Inc., La Jolla, Calif.). In all studies, less than 10% of total PEP was exhausted during the reaction. Reactions were performed at 30° C. for up to 5 min. All values determined represent at least two measurements, in triplicate (Tables 1-6) or duplicate unless mentioned otherwise. […]
Structure (SMILES),MIC (S. aureus (ATCC29213)) [µg/mL],IC50 (MRSA Pyk) [nM]
"CN(C)CCOC(=O)c1c(C(=O)Nc2ccc(Cl)cc2)[nH]c2cc(Br)ccc12 [Compound 82, 2-(Dimethylamino)ethyl 6-bromo-2-((4-chlorophenyl)carbamoyl)-1 H-indole-3-carboxylate]",> 64,< 100
"O=C(O)C(=O)c1c(/C=C/c2ccc(Cl)cc2)[nH]c2cc(Br)ccc12 [Compound 85, (E)-2-(6-bromo-2-(4-chlorostyryl)-1H-indol-3-yl)-2-oxoacetic Acid]",> 64,100 to 1000
"O=C(NC1CN2CCC1CC2)c1c(/C=C/c2ccc(Cl)cc2)[nH]c2cc(Br)ccc12 (centres unmarked) [Compound 26, (E)-6-Bromo-2-(4-chlorostyryl)-N-(quinuclidin-3-yl)-1H-indole-3-carboxamide]",8,100 to 1000
"O=C(c1c(CCc2ccc(Cl)cc2)[nH]c2cc(Br)ccc12)N1CCOCC1 [Compound 47, (6-Bromo-2-(4-chlorophenethyl)-1H-indol-3-yl)(morpholino)methanone]",> 64,> 1000
"CN1CCN(CCNC(=O)c2c(C(=O)Nc3ccc(Cl)cc3)[nH]c3cc(Br)ccc23)CC1 [Compound 79, 6-Bromo-N2-(4-chlorophenyl)-N3-(2-(4-methylpiperazin-1-yl)ethyl)-1 H-indole-2,3-dicarboxamide]",> 64,< 100
"CN(C)C(=O)c1c(CCc2ccc(Cl)cc2)[nH]c2cc(Br)ccc12 [Compound 50, 6-Bromo-2-(4-chlorophenethyl)-N,N-dimethyl-1H-indole-3-carboxamide]",> 64,> 1000
"CC(O)(c1c(/C=C/c2ccc(Cl)cc2)[nH]c2cc(Br)ccc12)C(F)(F)F (centres unmarked) [Compound 18, (E)-2-(6-Bromo-2-(4-chlorostyryl)-1H-indol-3-yl)-1,1,1-trifluoropropan-2-ol]",1,< 100
O=C(c1c(-c2cc3ccccc3s2)[nH]c2cc(Br)ccc12)N1CCOCC1 [Compound 75],> 64,> 1000
"NS(=O)(=O)c1c(CCc2ccc(Cl)cc2)[nH]c2cc(Br)ccc12 [Compound 70, 6-Bromo-2-(4-chlorophenethyl)-1H-indole-3-sulfonamide]",> 64,> 1000
"O=C(NCCC1CCOCC1)c1c(/C=C/c2ccc(Cl)cc2)[nH]c2cc(Br)ccc12 [Compound 42, (E)-6-Bromo-2-(4-chlorostyryl)-N-(2-(tetrahydro-2H-pyran-4-yl)ethyl)-1H-indole-3-carboxamide]",> 64,100 to 1000
"ON=C(c1c(/C=C/c2ccc(Cl)cc2)[nH]c2cc(Br)ccc12)C(F)(F)F (racemic) [Compound 19, 1-(6-Bromo-2-(4-chlorostyryl)-1H-indol-3-yl)-2,2,2-trifluoroethanone Oxime]",0.5,100 to 1000
"O=C(NCCN1CCNCC1)c1c(/C=C/c2ccc(Cl)cc2)[nH]c2cc(Br)ccc12 [Compound 52, (E)-6-Bromo-2-(4-chlorostyryl)-N-(2-(piperazin-1-yl)ethyl)-1H-indole-3-carboxamide]",16,< 100
"O=C(O)C(F)(F)C(F)(F)C(=O)c1c(/C=C/c2ccc(Cl)cc2)[nH]c2cc(Br)ccc12 [Compound 5, (E)-4-(6-Bromo-2-(4-chlorostyryl)-1H-indol-3-yl)-2,2,3,3-tetrafluoro-4-oxobutanoic Acid]",32,< 100
"CN(C)CCNC(=O)c1c(C(=O)Nc2ccc(Cl)cc2)[nH]c2cc(Br)ccc12 [Compound 81, 6-Bromo-N2-(4-chlorophenyl)-N3-(2-(dimethylamino)ethyl)-1H-indole-2,3-dicarboxamide]",> 64,< 100
"O=C(O)COc1cc2[nH]c(-c3cc4ccc(Br)cc4[nH]3)cc2cc1Cl [Compound 187, 2-((6′-Bromo-5-chloro-1H,1′H-[2,2′-biindol]-6-yl)oxy)acetic Acid]",64,< 100
"COc1ccc(/C=C/c2[nH]c3cc(Br)ccc3c2C(=O)NCCO)nc1 [Compound 35, (E)-6-Bromo-N-(2-hydroxyethyl)-2-(2-(5-methoxypyridin-2-yl)vinyl)-1 H-indole-3-carboxamide]",> 64,100 to 1000
"O=C(NCCO)c1c(/C=C/c2ccc(Cl)cc2)[nH]c2cc(Br)ccc12 [Compound 28, (E)-6-Bromo-2-(4-chlorostyryl)-N-(2-hydroxyethyl)-1H-indole-3-carboxamide]",> 64,100 to 1000
"CN(C)C(=O)c1c(/C=C/c2ccc(Cl)nc2)[nH]c2cc(Br)ccc12 [Compound 36, (E)-6-bromo-2-(2-(6-chloropyridin-3-yl)vinyl)-N,N-dimethyl-1H-indole-3-carboxamide]",> 64,100 to 1000
"O=C(c1ccccc1)c1c(/C=C/c2ccc(Cl)cc2)[nH]c2cc(Br)ccc12 [Compound 3, (E)-(6-Bromo-2-(4-chlorostyryl)-1H-indol-3-yl)(phenyl)methanone]",16,< 100
"OC(c1c(/C=C/c2ccc(Cl)cc2)[nH]c2cc(Br)ccc12)(C(F)(F)F)C(F)(F)F [Compound 13, (E)-2-(6-Bromo-2-(4-chlorostyryl)-1H-indol-3-yl)-1,1,1,3,3,3-hexafluoropropan-2-ol]",1,100 to 1000
"O=C(c1c(/C=C/c2ccc(Cl)cc2)[nH]c2cc(Br)ccc12)N1CCOCC1 [Compound 22, (E)-(6-Bromo-2-(4-chlorostyryl)-1H-indol-3-yl)(morpholino)methanone]",> 64,< 100
"O=C(CCN1CCOCC1)c1c(/C=C/c2cn3ccccc3n2)[nH]c2cc(Br)ccc12 [Compound 10, (E)-1-(6-Bromo-2-(2-(imidazo[1,2-a]pyridin-2-yl)vinyl)-1H-indol-3-yl)-3-morpholinopropan-1-one]",> 64,100 to 1000
